These results are taken from patent publication US20090312288A1 (TAKEDA PHARMACEUTICAL COMPANY LIMITED, priority 2008, published 2009).

Where only a bound is given, the exact number is not on record here.

The target in the experiment is Aurora B/INCENP (Homo sapiens, UniProt Q96GD4). Kind of experiment: Determination of inhibition of AIK: Aurora B/INCENP direct fluorescence polarization (IMAP) assay. To be noted: 10 uM ATP, 0.8 nM Aurora B/INCENP; values given as bins; read-out: IC50 of Exemplified Compounds Against AIK B. It counts as biochemical.
Chain of Aurora B/INCENP (Q96GD4 whole entry): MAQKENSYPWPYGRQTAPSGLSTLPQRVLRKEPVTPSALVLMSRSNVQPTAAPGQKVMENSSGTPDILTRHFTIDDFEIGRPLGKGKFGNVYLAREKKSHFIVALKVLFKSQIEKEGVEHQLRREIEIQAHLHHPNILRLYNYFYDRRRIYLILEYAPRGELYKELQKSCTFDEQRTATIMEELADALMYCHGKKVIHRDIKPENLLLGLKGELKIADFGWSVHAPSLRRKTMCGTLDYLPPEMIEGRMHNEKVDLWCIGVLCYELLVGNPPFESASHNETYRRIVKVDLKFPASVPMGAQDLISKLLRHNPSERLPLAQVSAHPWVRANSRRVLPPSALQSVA
Chain of Aurora B/INCENP (Q9NQS7 whole entry partner): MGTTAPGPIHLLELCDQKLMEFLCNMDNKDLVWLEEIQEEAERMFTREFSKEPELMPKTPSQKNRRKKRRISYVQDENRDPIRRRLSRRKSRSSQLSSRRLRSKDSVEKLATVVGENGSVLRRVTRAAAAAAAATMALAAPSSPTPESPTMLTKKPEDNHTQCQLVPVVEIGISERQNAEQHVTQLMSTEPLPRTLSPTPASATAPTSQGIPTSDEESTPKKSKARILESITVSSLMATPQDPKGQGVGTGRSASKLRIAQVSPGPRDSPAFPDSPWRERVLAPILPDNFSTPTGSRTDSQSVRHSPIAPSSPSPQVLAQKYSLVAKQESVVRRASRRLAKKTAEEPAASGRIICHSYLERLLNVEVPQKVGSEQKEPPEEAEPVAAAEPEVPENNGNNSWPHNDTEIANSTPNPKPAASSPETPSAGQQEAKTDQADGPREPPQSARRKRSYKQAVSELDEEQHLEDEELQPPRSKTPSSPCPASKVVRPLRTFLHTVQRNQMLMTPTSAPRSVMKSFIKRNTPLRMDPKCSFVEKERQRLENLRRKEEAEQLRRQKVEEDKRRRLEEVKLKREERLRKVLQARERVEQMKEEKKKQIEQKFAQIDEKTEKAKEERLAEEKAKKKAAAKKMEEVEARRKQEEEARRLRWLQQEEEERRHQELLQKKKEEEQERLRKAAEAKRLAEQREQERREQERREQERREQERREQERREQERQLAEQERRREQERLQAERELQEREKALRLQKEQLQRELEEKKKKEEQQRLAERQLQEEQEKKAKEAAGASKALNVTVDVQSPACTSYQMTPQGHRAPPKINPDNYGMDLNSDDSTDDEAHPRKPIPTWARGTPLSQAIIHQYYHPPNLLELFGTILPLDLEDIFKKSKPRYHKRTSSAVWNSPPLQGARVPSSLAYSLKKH
With `CCS(=O)(=O)c1cccc(-c2ccc(OC[C@H]3CCN(C)C3)c3[nH]c4ncc(C)cc4c23)c1` [Compound 186, (S)-5-(3-(ethylsulfonyl)phenyl)-3-methyl-8-((1-methylpyrrolidin-3-yl)methoxy)-9H-pyrido[2,3-b]indole], the IC50 is over 13 nM.
Then `CCS(=O)(=O)c1cccc(-c2ccc(OC[C@@H]3CCN(C)C3)c3[nH]c4ncc(C)cc4c23)c1` [Compound 187, (R)-5-(3-(ethylsulfonyl)phenyl)-3-methyl-8-((1-methylpyrrolidin-3-yl)methoxy)-9H-pyrido[2,3-b]indole], with over 13 nM; and `CCS(=O)(=O)c1cccc(-c2ccc(OC[C@@H]3CCCN3C)c3[nH]c4ncc(C)cc4c23)c1` [Compound 188, (S)-5-(3-(ethylsulfonyl)phenyl)-3-methyl-8-((1-methylpyrrolidin-2-yl)methoxy)-9H-pyrido[2,3-b]indole], with 8.6 to 13 nM; and `CCS(=O)(=O)c1cccc(-c2ccc(OC[C@H]3CCNC3)c3[nH]c4ncc(C)cc4c23)c1` [Compound 189, (S)-5-(3-(ethylsulfonyl)phenyl)-3-methyl-8-(pyrrolidin-3-ylmethoxy)-9H-pyrido[2,3-b]indole], with 8.6 to 13 nM.
For `CCS(=O)(=O)c1cccc(-c2ccc(OC[C@@H]3CCNC3)c3[nH]c4ncc(C)cc4c23)c1` [Compound 190, (R)-5-(3-(ethylsulfonyl)phenyl)-3-methyl-8-(pyrrolidin-3-ylmethoxy)-9H-pyrido[2,3-b]indole], the IC50 is over 13 nM.
For `Cc1cnc2[nH]c3c(OCCCN(C)C)ccc(-c4cccc(S(=O)(=O)C5CC5)c4)c3c2c1` [Compound 194, 3-(5-(3-(cyclopropylsulfonyl)phenyl)-3-methyl-9H-pyrido[2,3-b]indol-8-yloxy)-N,N-dimethylpropan-1-amine], the IC50 lay in the range of 4 to 5.5 nM.
Under `Cc1cnc2[nH]c3c(OCCCN(C)C)ccc(-c4cccc(NC(=O)C5CC5)c4)c3c2c1` [Compound 195, N-(3-(8-(3-(dimethylamino)propoxy)-3-methyl-9H-pyrido[2,3-b]indol-5-yl)phenyl)cyclopropanecarboxamide] stands over 13 nM.
Then `CCS(=O)(=O)c1cccc(-c2ccc(OCC3CCN(C)CC3)c3[nH]c4ncc(Cl)cc4c23)c1` [Compound 200, 3-chloro-5-(3-(ethylsulfonyl)phenyl)-8-((1-methylpiperidin-4-yl)methoxy)-9H-pyrido[2,3-b]indole], with 5.6 to 8.5 nM; and `CCS(=O)(=O)c1cccc(-c2ccc(OCC3CCNCC3)c3[nH]c4ncc(Cl)cc4c23)c1` [Compound 201, 3-chloro-5-(3-(ethylsulfonyl)phenyl)-8-(piperidin-4-ylmethoxy)-9H-pyrido[2,3-b]indole], with under 4 nM; and `CCS(=O)(=O)c1cccc(-c2ccc(OCC3CCN(C)CC3)c3[nH]c4ncc(C(F)(F)F)cc4c23)c1` [Compound 202, 5-(3-(ethylsulfonyl)phenyl)-8-((1-methylpiperidin-4-yl)methoxy)-3-(trifluoromethyl)-9H-pyrido[2,3-b]indole], with 8.6 to 13 nM.
Take `CCS(=O)(=O)c1cccc(-c2ccc(OCC3CCN(C)CC3)c3[nH]c4ncc(C#N)cc4c23)c1` [Compound 203, 5-(3-(ethylsulfonyl)phenyl)-8-((1-methylpiperidin-4-yl)methoxy)-9H-pyrido[2,3-b]indole-3-carbonitrile]: the IC50 fell in the range of 5.6 to 8.5 nM.
For the compound `CCS(=O)(=O)c1cccc(-c2cc(F)c(OCCN(C)C)c3[nH]c4ncc(C)cc4c23)c1` [Compound 204, 2-(5-(3-(ethylsulfonyl)phenyl)-7-fluoro-3-methyl-9H-pyrido[2,3-b]indol-8-yloxy)-N,N-dimethylethanamine], the IC50 was 8.6 to 13 nM.
Under `CCS(=O)(=O)c1cccc(-c2cc(F)c(OCCCN(C)C)c3[nH]c4ncc(Cl)cc4c23)c1` [Compound 205, 3-(3-chloro-5-(3-(ethylsulfonyl)phenyl)-7-fluoro-9H-pyrido[2,3-b]indol-8-yloxy)-N,N-dimethylpropan-1-amine] stands under 4 nM; under `CCS(=O)(=O)c1cccc(-c2ccc(OCCCN(C)C)c3[nH]c4ncc(C)cc4c23)c1` [Compound 206, 3-(5-(3-(ethylsulfonyl)phenyl)-3-methyl-9H-pyrido[2,3-b]indol-8-yloxy)-N,N-dimethylpropan-1-amine], 4 to 5.5 nM; under `CCS(=O)(=O)c1cccc(-c2ccc(OCCN(C)C)c3[nH]c4ncc(C)cc4c23)c1` [Compound 207, 2-(5-(3-(ethylsulfonyl)phenyl)-3-methyl-9H-pyrido[2,3-b]indol-8-yloxy)-N,N-dimethylethanamine], over 13 nM.
In the case of `CCS(=O)(=O)c1cccc(-c2ccc(OCCOC)c3[nH]c4ncc(C)cc4c23)c1` [Compound 208, 5-(3-(ethylsulfonyl)phenyl)-8-(2-methoxyethoxy)-3-methyl-9H-pyrido[2,3-b]indole], the IC50 lay within 8.6 to 13 nM.
For `CCS(=O)(=O)c1cccc(-c2ccc(OCC#N)c3[nH]c4ncc(C)cc4c23)c1` [Compound 209, 2-(5-(3-(ethylsulfonyl)phenyl)-3-methyl-9H-pyrido[2,3-b]indol-8-yloxy)acetonitrile], the IC50 was under 4 nM.
As to `CCS(=O)(=O)c1cccc(-c2ccc(OCCC#N)c3[nH]c4ncc(C)cc4c23)c1` [Compound 210, 3-(5-(3-(ethylsulfonyl)phenyl)-3-methyl-9H-pyrido[2,3-b]indol-8-yloxy)propanenitrile], the IC50 is over 13 nM.
Take `CCS(=O)(=O)c1cccc(-c2ccc(O[C@H](C)CO)c3[nH]c4ncc(C)cc4c23)c1` [Compound 212, (R)-2-(5-(3-(ethylsulfonyl)phenyl)-3-methyl-9H-pyrido[2,3-b]indol-8-yloxy)propan-1-ol]: the IC50 is 5.6 to 8.5 nM.
In the case of `CCS(=O)(=O)c1cccc(-c2ccc(O[C@@H](C)CO)c3[nH]c4ncc(C)cc4c23)c1` [Compound 213, (S)-2-(5-(3-(ethylsulfonyl)phenyl)-3-methyl-9H-pyrido[2,3-b]indol-8-yloxy)propan-1-ol], the IC50 lay within 4 to 5.5 nM.
`CCS(=O)(=O)c1cccc(-c2ccc(OCCO)c3[nH]c4ncc(C)cc4c23)c1` [Compound 216, 2-(5-(3-(ethylsulfonyl)phenyl)-3-methyl-9H-pyrido[2,3-b]indol-8-yloxy)ethanol]: the IC50 was in the range of 5.6 to 8.5 nM.
Then `CCS(=O)(=O)c1cccc(-c2ccc(OCCCO)c3[nH]c4ncc(C)cc4c23)c1` [Compound 217, 3-(5-(3-(ethylsulfonyl)phenyl)-3-methyl-9H-pyrido[2,3-b]indol-8-yloxy)propan-1-ol], with 4 to 5.5 nM.
With `CCS(=O)(=O)c1cccc(-c2ccc(OC)c3[nH]c4ncc(Cl)cc4c23)c1` [Compound 218], the IC50 is under 4 nM.
With `CCS(=O)(=O)c1cccc(-c2ccc(OCCCN(C)C)c3[nH]c4ncc(Cl)cc4c23)c1` [Compound 220, 3-(3-chloro-5-(3-(ethylsulfonyl)phenyl)-9H-pyrido[2,3-b]indol-8-yloxy)-N,N-dimethylpropan-1-amine], the IC50 lay in the range of 4 to 5.5 nM.
Under `CCN(CC)CCOc1ccc(-c2cccc(S(=O)(=O)CC)c2)c2c1[nH]c1ncc(Cl)cc12` [Compound 221, 2-(3-chloro-5-(3-(ethylsulfonyl)phenyl)-9H-pyrido[2,3-b]indol-8-yloxy)-N,N-diethylethanamine] stands 5.6 to 8.5 nM.
